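Cultured in 96-well plates, cells were exposed to test compound for 48 hours across five concentrations. At the GI50, growth is halved.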 Calls of active or inactive are those of the source. Cut-off read from the data, not from the text of the source: active = GI50 up to about 1.1 µM and inactive = higher.
Columns and labels:
Assay in all cases: NCI tumour cell line growth inhibition, 48 h
HCT-116 = system: HCT-116
K562 = system: K562
UO-31 = system: UO-31
U-251 = system: U-251
RXF 393 = system: RXF 393
SN12C = system: SN12C
HL-60 = system: HL-60
A498 = system: A498
NCI-H460 = system: NCI-H460
SNB-75 = system: SNB-75
COLO 205 = system: COLO 205
M19-MEL = system: M19-MEL
MOLT-4 = system: MOLT-4
UACC-62 = system: UACC-62

Measured: GI50

COc1ccc(C2c3cc4c(cc3OC(O)(CO)C2C(=O)O)OCO4)cc1.COc1ccc(C2c3cc4c(cc3OC3(O)COC(=O)C23)OCO4)cc1 (centres undefined)
inactive: HCT-116 18.2 µM | K562 19.1 µM | UO-31 29.9 µM | U-251 19.8 µM | RXF 393 16.9 µM | SN12C 23.7 µM | HL-60 17.2 µM | A498 89.3 µM | NCI-H460 19.1 µM | SNB-75 30.3 µM | COLO 205 10.3 µM | M19-MEL 4.6 µM | MOLT-4 19.1 µM | UACC-62 17.7 µM
